Results published in PubChem BioAssay AID2401 (Southern Research Specialized Biocontainment Screening …, 2010).
Several values for one entry are separate records, joined by “and”; a condition that tells them apart may be missing. Equal entries are not always repeated.

System: S. Typhimurium GFP reporter counter-screen, fluorescence, 4 h
Test: nmpC-GFP reporter counter-screen in S. Typhimurium, dose response, counter-screen for PhoP regulon inhibitor project, Salmonella Typhimurium, GFP fluorescence (AID 2401);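 note: S. typhimurium with Mg-insensitive nmpC-GFP reporter grown at 10 µM Mg2+; drop in reporter fluorescence reflects general culture growth inhibition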

| SMILES | IC50 |
| --- | --- |
| O=[N+]([O-])c1ccc(O)c2ncccc12 | 2.37 µM |
| O=C1C=C(O)c2c(O)cc(O)c(O)c2C1=O | 76.8 µM |
| O=[N+]([O-])c1cc(Cl)c(O)c2ncccc12 | 5 µM |
| CN1CCN(C(c2ccc(Br)cc2)c2cc(Cl)c3cccnc3c2O)CC1 (stereo not given) | 19.8 µM |
| O=Cc1ccc(O)c2ncccc12 | 8.12 µM |
| O=C1OC(/C(=C\Nc2ccc(F)cc2F)[N+](=O)[O-])c2ccccc21 (stereo not given) | 61.1 µM |
| Cc1sc2ncnc(N/N=C/c3ccccc3O)c2c1C | 72.3 µM |
| Cc1cc(NC(c2cccnc2)c2ccc3cccnc3c2O)no1 (stereo not given) | 105 µM |
| O=C(Nc1nc(-c2ccccn2)cs1)c1ccc(Cl)s1 | 28.6 µM |
| Oc1c(C(c2ccccn2)N2CCOCC2)ccc2cccnc12 (stereo not given) | 88.6 µM |
| CCOC(=O)C1=Nc2ccccc2C1=[N+]=[N-] | 42.6 µM |
| O=[N+]([O-])c1cc(CN2CCOCC2)c2cccnc2c1O | 27.2 µM |
| CCn1cc(C(=O)O)c(=O)c2cc(F)c(N3CCN(C(=S)Nc4ccc(OC)cc4)CC3)cc21 | 15.3 µM |
| NC1=NC[C@@H](Cc2ccc(O)cc2)N1CCCCC1CCCCC1 | 32.9 µM |
| Cc1ccc(-c2csc(N=C(N)N)n2)cc1 | 109 µM |
| CNC[C@H](CC1CCCCC1)NC[C@H](Cc1ccccc1)NCCC12CC3CC(CC(C3)C1)C2 | 16.1 µM |
| O=C(O)C1Nc2c(O)cccc2C2C=CCC12 (stereo not given) | 86.9 µM |
| O=C(c1ccc(F)cc1)C(CN1CCOCC1)c1ccccc1 (stereo not given) | 144 µM |
| CCN(CC)S(=O)(=O)c1cccc(C(=O)N/N=C/c2ccc(O)c(O)c2O)c1 | 98.6 µM |
| CCn1cc(C(=O)O)c(=O)c2cc(F)c(N3CCN(C(=S)NC(=O)c4cccc(C)c4)CC3)cc21 | 34.7 µM |
| CS(=O)(=O)c1ccc([C@@H](O)[C@@H](CO)NC(=O)C(Cl)Cl)cc1 | 86.2 µM |
| NC1CCN(c2c(F)cc3c(=O)c(C(=O)O)cn(C4CC4)c3c2Cl)C1 (stereo not given) | < 0.23 µM |
| Oc1c(CN2CCN(c3ccc(F)cc3)CC2)cc(Cl)c2cccnc12 | 19.8 µM |
| NC1=NC[C@H](Cc2ccc(O)cc2)N1CCC12CC3CC(CC(C3)C1)C2 | 70.7 µM |
| O=C1C=C(N2CCOCC2)c2ccccc2C1=O | 55.5 µM |
| NCC12CC3CC(C1)CC(c1ccc(Br)cc1)(C3)C2 | 40.3 µM |
| CN1CCN(C(c2ccccn2)c2cc(Cl)c3cccnc3c2O)CC1 (stereo not given) | 43.9 µM |
| CCCCCc1ccc(OCCC[n+]2ccccc2)c(CCCCC)c1 | 70.1 µM |

| SMILES | IC50 |
| --- | --- |
| O=C(O)CCN1C(=O)CC(N2C(=O)/C(=C/c3ccc(Cl)cc3)SC2=S)C1=O (stereo not given) | 20.6 µM |
| Cc1ccccc1NC(=O)CCC(=O)N/N=C/c1cc([N+](=O)[O-])ccc1O | 48.6 µM |
| C[C@H]1O[C@@H](n2cc(F)c(=O)[nH]c2=O)[C@H](O)[C@@H]1O | 38.6 µM |
| CC(=O)NC(c1ccc2ccccc2c1)c1ccc2cccnc2c1O (stereo not given) | 100 µM |
| CO[C@H]1C=CO[C@@]2(C)Oc3c(C)c(O)c4c(O)c(c(C=NN5CCN(C)CC5)c(O)c4c3C2=O)NC(=O)C(C)=CC=C[C@H](C)[C@H](O)[C@@H](C)[C@@H](O)[C@@H](C)[C@H](OC(C)=O)[C@@H]1C | 3.44 µM |
| COc1cccc(/C=N/Nc2ncc(C(F)(F)F)cc2Cl)c1O | 126 µM |
| CCCCC(CC)CN=C(N)NC(N)=NCCCCCCN=C(N)NC(N)=NCC(CC)CCCC (stereo not given) | 5.51 µM |
| COc1cc(C(=O)Oc2c(CN3CCOCC3)cc(Cl)c3cccnc23)cc(OC)c1OC | 126 µM |
| Nc1nc(F)nc2c1ncn2[C@@H]1O[C@H](CO)[C@@H](O)[C@H]1O | 32.8 µM |
| Cc1ccnc(NC(c2cccnc2)c2ccc3cccnc3c2O)c1 (stereo not given) | 22.3 µM |
| C#CCOCCOCCOCCNc1nc(N2CCN(C(=O)CCCCCCCCCCNC(=O)[C@H](CCCN=C(N)N)n3cc(C[C@@H](C)CC)nn3)CC2)nc(N2CCN(C(=O)CCCCCCCCCCNC(=O)[C@@H]([C@H](C)CC)n3cc(CCCCCN)nn3)CC2)n1 | 74.9 µM |
| CN1/C(=C\C=C\C2=[N+](C)c3ccc4ccccc4c3C2(C)C)C(C)(C)c2ccccc21 | 9.42 µM |
| O=S1(=O)Nc2c(ccc3cccnc23)-c2ccccc21 | 2.73 µM |
| CCCCOc1ccc(CSC(=N)N)cc1[N+](=O)[O-] | 115 µM |
| CCn1cc(C(=O)O)c(=O)c2cc3c(cc21)OCO3 | 80.6 µM |
| NC(=NCCCCCCN=C(N)/N=C(\N)Nc1ccc(Cl)cc1)/N=C(\N)Nc1ccc(Cl)cc1 | 5.5 µM and 9.19 µM and 14.6 µM |
| Clc1ccc(OCCCNCc2ccccc2)c(Br)c1 | 46.4 µM |
| CC[n+]1c(/C=C/N(C)c2ccccc2)n(-c2ccccc2)c2ccc(-c3nc4ccccc4s3)cc21 | 19.4 µM |
| c1ccc(C2CNCc3c2ccc2ccccc32)cc1 (stereo not given) | 138 µM |
| CCOC(=O)c1ccc(-c2ccc(C3Nc4ccccc4C(=O)N3O)o2)cc1 (stereo not given) | 142 µM |
| Cc1ccc(NC(=O)NCC2CCN(Cc3cccc(Cl)c3)CC2)cc1Cl | 70.2 µM |
| COc1c(N2CCN(C(=S)NCc3ccccc3)C(C)C2)c(F)cc2c(=O)c(C(=O)O)cn(C3CC3)c12 (stereo not given) | 90.4 µM |
| O=C(Nc1nnc(-c2cccs2)o1)c1cccc(Oc2ccccc2)c1 | 40.8 µM |
| CC(C)COc1ccc(Cc2cnc(N)nc2N)cc1 | 61.8 µM |
| Cc1ccc(-c2csc(N=C(N)N)n2)c(C)c1 | 57.2 µM |
| O=C1c2ccccc2NC(c2ccc(-c3cccc(Cl)c3)o2)N1O (stereo not given) | 52.2 µM |
| O=C(NC(=S)NNC(=O)c1ccccc1O)c1ccco1 | 41.5 µM |
